These results are taken from article PMC10935252, “Synthesis and Biological Evaluation of New Dihydrofuro[3,2-b]piperidine Derivatives as Potent α-Glucosidase Inhibitors” (Molecules, 2024).

Structures are written as SMILES.

What is called IC50 is the midpoint of a concentration-inhibition curve.

One assay concerns α-glucosidase from yeast. The assay can be described thus: α-Glucosidase inhibition assay. Type of assay: biochemical, Baker’s yeast. Conditions: ratio of IC50 values against α-glucosidase from yeast. On the procedure: α-Glucosidase activity was assayed by the method reported, with minor modifications. […] The reaction mixture contained 150 μL of enzyme solution, 150 μL of inhibitor, and 150 μL of substrate (maltose). The substrate and α-glucosidase (Baker’s yeast) were purchased from Sigma-Aldrich Chemical (St. Louis, MO, USA). Both the inhibitor and the substrate were first dissolved in dimethylsulfoxide (DMSO) and then diluted with Na2HPO4/NaH2PO4 buffer for a final concentration of DMSO of 5%. The enzymatic reaction was started after incubation of the enzyme (0.04 U/mL) for 10 min in the presence of the inhibitor (five different concentrations) by the addition of the substrate (0.5 mM). The mixture was incubated at 37 °C for 60 min, and the reaction was quenched in boiling water for 10 min. The supernatant was taken to determine the content of glucose by means of the glucose oxidase method using a commercial glucose kit (Sichuan Mike Biotechnology Co., Ltd., Chengdu, China). The absorption at 505 nm was measured immediately and taken as the relative rate for the hydrolysis of the substrate. The blank control (the distilled water instead of sample and enzyme solution in the process) and the negative control (distilled water instead of sample solution in the process) were also prepared. Acarbose was used as the positive control. To calculate the inhibition rate (%), the following formula was used: (controlnegative − sample)/(controlnegative − controlblank) × 100%. The entire experiment was carried out in triplicate.
As to `C[C@]1(O)C[C@@H]2[C@H](O1)[C@@H](O)[C@@H](O)CN2Cc1c(Cl)cc(O)cc1Cl` [Compound 32, (2R, 3aR, 6S, 7S, 7aS)-2,6,7-trihydroxy-2-methyl-4-(2,6-dichloro-4-hydroxylbenzyl)-3a,7a-Dihydrofuro[3,2-b]piperidine], the “times stronger activity than the positive control acarbose” value came to 30 times.

The same assay, now with this note: substrate maltose 0.5 mM, pH 6.8, 37 °C; mean ± SD of three independent experiments; read-out: IC50 against α-glucosidase from yeast.
Take `C[C@H]1O[C@H](O[C@H]2[C@H](O)[C@@H](O)[C@@H](O[C@H]3[C@H](O)[C@@H](O)C(O)O[C@@H]3CO)O[C@@H]2CO)[C@H](O)[C@@H](O)[C@@H]1N[C@H]1C=C(CO)[C@@H](O)[C@H](O)[C@H]1O` (some centres unmarked) [Acarbose, reference compound]: the IC50 stood at 2 ± 0.2 µM.
Still for that read-out and setting: the figure for `CC(=O)C[C@H]1NC[C@@H](O)[C@@H](O)[C@@H]1O` [Compound 6] is > 20 µM; for `CC(=O)C[C@H]1NC[C@H](O)[C@H](O)[C@H]1O` [Compound 12] it is > 20 µM; for `C[C@]1(O)C[C@@H]2[C@@H](O1)[C@H](O)[C@H](O)CN2Cc1ccccc1Cl` [Compound 13, (2R, 3aR, 6R, 7R, 7aR)-2,6,7-trihydroxy-2-methyl-4-(2-chlorobenzyl)-3a,7a-Dihydrofuro[3,2-b]piperidine] it is 13 ± 0.5 µM.
The same measure, in the same setting: with `C[C@]1(O)C[C@@H]2[C@@H](O1)[C@H](O)[C@H](O)CN2Cc1ccc(O)cc1` [Compound 14, (2R, 3aR, 6R, 7R, 7aR)-2,6,7-trihydroxy-2-methyl-4-(4-hydroxylbenzyl)-3a,7a-Dihydrofuro[3,2-b]piperidine] the figure was 10 ± 0.7 µM.
On the same count and under the same terms, the figure for `C[C@]1(O)C[C@@H]2[C@@H](O1)[C@H](O)[C@H](O)CN2Cc1ccccc1O` [Compound 15, (2R, 3aR, 6R, 7R, 7aR)-2,6,7-trihydroxy-2-methyl-4-(2-hydroxylbenzyl)-3a,7a-Dihydrofuro[3,2-b]piperidine] is > 20 µM; for `C[C@]1(O)C[C@@H]2[C@@H](O1)[C@H](O)[C@H](O)CN2Cc1cccc(O)c1` [Compound 16, (2R, 3aR, 6R, 7R, 7aR)-2,6,7-trihydroxy-2-methyl-4-(3-hydroxylbenzyl)-3a,7a-Dihydrofuro[3,2-b]piperidine] it is > 20 µM.
In the case of `C[C@]1(O)C[C@@H]2[C@@H](O1)[C@H](O)[C@H](O)CN2Cc1ccc(O)c(Cl)c1` [Compound 17, (2R, 3aR, 6R, 7R, 7aR)-2,6,7-trihydroxy-2-methyl-4-(3-chloro-4-hydroxylbenzyl)-3a,7a-Dihydrofuro[3,2-b]piperidine], the IC50 is 4.9 ± 0.2 µM.
For the compound `C[C@]1(O)C[C@@H]2[C@@H](O1)[C@H](O)[C@H](O)CN2Cc1ccc(O)c(Br)c1` [Compound 18, (2R, 3aR, 6R, 7R, 7aR)-2,6,7-trihydroxy-2-methyl-4-(3-bromo-4-hydroxylbenzyl)-3a,7a-Dihydrofuro[3,2-b]piperidine], the IC50 was 5.5 ± 0.4 µM.
The same measure, in the same setting: the figure for `C[C@]1(O)C[C@@H]2[C@@H](O1)[C@H](O)[C@H](O)CN2Cc1ccc(O)c(F)c1` [Compound 19, (2R, 3aR, 6R, 7R, 7aR)-2,6,7-trihydroxy-2-methyl-4-(3-fluoro-4-hydroxylbenzyl)-3a,7a-Dihydrofuro[3,2-b]piperidine] is 5.4 ± 0.3 µM; for `C[C@]1(O)C[C@@H]2[C@@H](O1)[C@H](O)[C@H](O)CN2Cc1ccc(O)cc1Cl` [Compound 20, (2R, 3aR, 6R, 7R, 7aR)-2,6,7-trihydroxy-2-methyl-4-(2-chloro-4-hydroxylbenzyl)-3a,7a-Dihydrofuro[3,2-b]piperidine] it is 4.4 ± 0.3 µM.
The same measure, in the same setting: with `C[C@]1(O)C[C@@H]2[C@@H](O1)[C@H](O)[C@H](O)CN2Cc1c(Cl)cc(O)cc1Cl` [Compound 21, (2R, 3aR, 6R, 7R, 7aR)-2,6,7-trihydroxy-2-methyl-4-(2,6-dichloro-4-hydroxylbenzyl)-3a,7a-Dihydrofuro[3,2-b]piperidine] the figure was 0.91 ± 0.1 µM; with `COc1cc(CN2C[C@@H](O)[C@@H](O)[C@@H]3O[C@@](C)(O)C[C@H]32)ccc1O` [Compound 22, (2R, 3aR, 6R, 7R, 7aR)-2,6,7-trihydroxy-2-methyl-4-(4-hydroxyl-methoxylbenzyl)-3a,7a-Dihydrofuro[3,2-b]piperidine], 10.5 ± 0.8 µM; with `CCOc1cc(CN2C[C@@H](O)[C@@H](O)[C@@H]3O[C@@](C)(O)C[C@H]32)ccc1O` [Compound 23, (2R, 3aR, 6R, 7R, 7aR)-2,6,7-trihydroxy-2-methyl-4-(4-hydroxyl-3-ethyoxylbenzyl)-3a,7a-Dihydrofuro[3,2-b]piperidine], 9 ± 0.6 µM.
Still for that read-out and setting: the figure for `C[C@]1(O)C[C@@H]2[C@@H](O1)[C@H](O)[C@H](O)CN2Cc1cc(Br)c(O)c(Br)c1` [Compound 24, (2R, 3aR, 6R, 7R, 7aR)-2,6,7-trihydroxy-2-methyl-4-(3,5-dibromo-4-hydroxyl-benzyl)-3a,7a-Dihydrofuro[3,2-b]piperidine] is 1.9 ± 0.2 µM; for `C[C@]1(O)C[C@@H]2[C@H](O1)[C@@H](O)[C@@H](O)CN2Cc1ccc(O)cc1` [Compound 25, (2R, 3aR, 6S, 7S, 7aS)-2,6,7-trihydroxy-2-methyl-4-(4-hydroxylbenzyl)-3a,7a-di-hydrofuro[3,2-b]piperidine] it is 8.3 ± 0.4 µM.
As for `C[C@]1(O)C[C@@H]2[C@H](O1)[C@@H](O)[C@@H](O)CN2Cc1ccccc1O` [Compound 26, (2R, 3aR, 6S, 7S, 7aS)-2,6,7-trihydroxy-2-methyl-4-(2-hydroxylbenzyl)-3a,7a-di-hydrofuro[3,2-b]piperidine], the IC50 is > 20 µM.
Same read-out and setting: with `C[C@]1(O)C[C@@H]2[C@H](O1)[C@@H](O)[C@@H](O)CN2Cc1cccc(O)c1` [Compound 27, (2R, 3aR, 6S, 7S, 7aS)-2,6,7-trihydroxy-2-methyl-4-(3-hydroxylbenzyl)-3a,7a-di-hydrofuro[3,2-b]piperidine] the figure was 3.7 ± 0.1 µM; with `C[C@]1(O)C[C@@H]2[C@H](O1)[C@@H](O)[C@@H](O)CN2Cc1ccc(O)c(Cl)c1` [Compound 28, (2R, 3aR, 6S, 7S, 7aS)-2,6,7-trihydroxy-2-methyl-4-(3-chloro-4-hydroxylbenzyl)-3a,7a-Dihydrofuro[3,2-b]piperidine], 0.5 ± 0.1 µM; with `C[C@]1(O)C[C@@H]2[C@H](O1)[C@@H](O)[C@@H](O)CN2Cc1ccc(O)c(Br)c1` [Compound 29, (2R, 3aR, 6S, 7S, 7aS)-2,6,7-trihydroxy-2-methyl-4-(3-bromo-4-hydroxylbenzyl)-3a,7a-Dihydrofuro[3,2-b]piperidine], 1.2 ± 0.1 µM.
On the same count and under the same terms, the figure for `C[C@]1(O)C[C@@H]2[C@H](O1)[C@@H](O)[C@@H](O)CN2Cc1ccc(O)c(F)c1` [Compound 30, (2R, 3aR, 6S, 7S, 7aS)-2,6,7-trihydroxy-2-methyl-4-(3-fluoro-4-hydroxylbenzyl)-3a,7a-Dihydrofuro[3,2-b]piperidine] is 2.6 ± 0.3 µM.
For `C[C@]1(O)C[C@@H]2[C@H](O1)[C@@H](O)[C@@H](O)CN2Cc1ccc(O)cc1Cl` [Compound 31, (2R, 3aR, 6S, 7S, 7aS)-2,6,7-trihydroxy-2-methyl-4-(2-chloro-4-hydroxylbenzyl)-3a,7a-Dihydrofuro[3,2-b]piperidine], the IC50 worked out at 1.8 ± 0.2 µM.
With `C[C@]1(O)C[C@@H]2[C@H](O1)[C@@H](O)[C@@H](O)CN2Cc1c(Cl)cc(O)cc1Cl` [Compound 32, (2R, 3aR, 6S, 7S, 7aS)-2,6,7-trihydroxy-2-methyl-4-(2,6-dichloro-4-hydroxylbenzyl)-3a,7a-Dihydrofuro[3,2-b]piperidine], the IC50 was 0.07 ± 0.01 µM.
Take `COc1cc(CN2C[C@H](O)[C@H](O)[C@H]3O[C@@](C)(O)C[C@H]32)ccc1O` [Compound 33, (2R, 3aR, 6S, 7S, 7aS)-2,6,7-trihydroxy-2-methyl-4-(4-hydroxyl-methoxylbenzyl)-3a,7a-Dihydrofuro[3,2-b]piperidine]: the 50% inhibitory concentration (IC50) is > 20 µM.
The same measure, in the same setting: the figure for `CCOc1cc(CN2C[C@H](O)[C@H](O)[C@H]3O[C@@](C)(O)C[C@H]32)ccc1O` [Compound 34, (2R, 3aR, 6S, 7S, 7aS)-2,6,7-trihydroxy-2-methyl-4-(4-hydroxyl-3-ethyoxylbenzyl)-3a,7a-Dihydrofuro[3,2-b]piperidine] is > 20 µM.
